Data: publication PMC3913620, “Preclinical Evaluation of the Novel, Orally Bioavailable Selective Inhibitor of Nuclear Export (SINE) KPT-335 in Spontaneous Canine Cancer: Results of a Phase I Study” (PLoS ONE, 2014)
Like-named read-outs stand apart in the source and are kept apart here.

Legend:
Jurkat cells = assay: MTS cell viability assay, Jurkat; type: cell-based, human; details: 72 hours, read-out: IC50 (± S.D.), Jurkat
Method: Cryopreserved tumor cells obtained from sterile lymph node biopsy samples from dogs with diffuse large B cell lymphoma (DLBCL) were cultured with 100 ng/mL of megaCD40L (Enzo Life Science, Plymouth Meeting, PA) as previously described, [27]. The human T-cell leukemia cell line, Jurkat, was from the American Type Culture Collection (ATCC, Manassas, VA) and cultured in RPMI1640 medium (Gibco/BRL, Grand Island, NY) containing 10% fetal bovine serum (FBS; Atlas Biologicals, Fort Collins, CO), 2-mercaptoethanol (Gibco/BRL), HEPES, L-glutamine, sodium pyruvate (Mediatech Inc., Manassas, VA), non-essential amino acids (Sigma Aldrich, St. Louis, MO), and Primocin (Invivogen, San Diego, CA). The canine DLBCL cell line CLBL1 obtained from Dr. Barbara Rütgen (University of Vienna, Austria), [29] and human DLBCL cell lines OCI-Ly3 [30], [31] and OCI-Ly10 [32] obtained from Dr. Anne Novak (Mayo Clinic Cancer Center, Rochester, MN) were cultured in complete Iscove’s Modified Dulbecco’s medium (IMDM) containing 20% FBS, L-glutamine, and Primocin. All cells were maintained at 37°C in a humidified 5% CO2 atmosphere. The following additional canine tumor cell lines were used to evaluate response to SINE compounds: C2, mast cell tumor line provided by Dr. George Caughey, UCSF, San Francisco, CA [33]; OSA16, osteosarcoma cell line, provided by Dr. Jaime Modiano, UM, Minneapolis, MN [34]; and 323610-3, malignant melanoma cell line, provided by Dr. Michael Kent, UCD, Davis, CA [35]. […]
(§1) Cell viability for lymphoid lines was determined by the MTS (3-(4, 5-dimethylthiazol-2-yl)-5-(3-carboxymethoxyphenyl)-2-(4-sulfophenyl)-2H-tetrazolium) assay using CellTiter 96® AQueous One Solution Cell Proliferation Assay Kit (Promega, Madison, WI). […] After 72 hours, 20 µL of MTS solution was added to each well and cells were incubated for another 4 hours before measuring absorbance at 490 nm using a Wallac Victor 1420 Multilabel Counter (Perkin Elmer, Waltham, MA). The IC50 of SINE was calculated using Prism 6 software (GraphPad Software, Inc., La Jolla, CA).

XPO1 = XPO1 inhibition activity; type: biochemical
[1] = tested on: primary canine DLBCL cells; assay: MTS cell viability assay, primary canine DLBCL samples; type: cell-based
Method: Cryopreserved tumor cells obtained from sterile lymph node biopsy samples from dogs with diffuse large B cell lymphoma (DLBCL) were cultured with 100 ng/mL of megaCD40L (Enzo Life Science, Plymouth Meeting, PA) as previously described, [27]. The human T-cell leukemia cell line, Jurkat, was from the American Type Culture Collection (ATCC, Manassas, VA) and cultured in RPMI1640 medium (Gibco/BRL, Grand Island, NY) containing 10% fetal bovine serum (FBS; Atlas Biologicals, Fort Collins, CO), 2-mercaptoethanol (Gibco/BRL), HEPES, L-glutamine, sodium pyruvate (Mediatech Inc., Manassas, VA), non-essential amino acids (Sigma Aldrich, St. Louis, MO), and Primocin (Invivogen, San Diego, CA). The canine DLBCL cell line CLBL1 obtained from Dr. Barbara Rütgen (University of Vienna, Austria), [29] and human DLBCL cell lines OCI-Ly3 [30], [31] and OCI-Ly10 [32] obtained from Dr. Anne Novak (Mayo Clinic Cancer Center, Rochester, MN) were cultured in complete Iscove’s Modified Dulbecco’s medium (IMDM) containing 20% FBS, L-glutamine, and Primocin. All cells were maintained at 37°C in a humidified 5% CO2 atmosphere. The following additional canine tumor cell lines were used to evaluate response to SINE compounds: C2, mast cell tumor line provided by Dr. George Caughey, UCSF, San Francisco, CA [33]; OSA16, osteosarcoma cell line, provided by Dr. Jaime Modiano, UM, Minneapolis, MN [34]; and 323610-3, malignant melanoma cell line, provided by Dr. Michael Kent, UCD, Davis, CA [35]. All cell lines were cultured in complete RPMI media containing 10% FBS, antibiotic/antimycotic, HEPES, sodium pyruvate, nonessential amino acids and Glutamax (media supplements from Gibco).
Cell viability for lymphoid lines was determined by the MTS (3-(4, 5-dimethylthiazol-2-yl)-5-(3-carboxymethoxyphenyl)-2-(4-sulfophenyl)-2H-tetrazolium) assay using CellTiter 96® AQueous One Solution Cell Proliferation Assay Kit (Promega, Madison, WI). Briefly, for lymphoid cell lines, 5×10^4 cells (or 1×10^5 primary DLBCL cells) were cultured in 100 µL of complete medium in 96-well plates in the presence of SINE compounds. After 72 hours, 20 µL of MTS solution was added to each well and cells were incubated for another 4 hours before measuring absorbance at 490 nm using a Wallac Victor 1420 Multilabel Counter (Perkin Elmer, Waltham, MA). The IC50 of SINE was calculated using Prism 6 software (GraphPad Software, Inc., La Jolla, CA).

OCI-Ly10 DLBCL cells = assay: MTS cell viability assay, OCI-Ly10; type: cell-based, human; details: 72 hours, read-out: IC50 (± S.D.), OCI-Ly10
Method: (§2) Cryopreserved tumor cells obtained from sterile lymph node biopsy samples from dogs with diffuse large B cell lymphoma (DLBCL) were cultured with 100 ng/mL of megaCD40L (Enzo Life Science, Plymouth Meeting, PA) as previously described, [27]. The human T-cell leukemia cell line, Jurkat, was from the American Type Culture Collection (ATCC, Manassas, VA) and cultured in RPMI1640 medium (Gibco/BRL, Grand Island, NY) containing 10% fetal bovine serum (FBS; Atlas Biologicals, Fort Collins, CO), 2-mercaptoethanol (Gibco/BRL), HEPES, L-glutamine, sodium pyruvate (Mediatech Inc., Manassas, VA), non-essential amino acids (Sigma Aldrich, St. Louis, MO), and Primocin (Invivogen, San Diego, CA). […]
as §1

OCI-Ly3 DLBCL cells = assay: MTS cell viability assay, OCI-Ly3; type: cell-based, human; details: 72 hours, read-out: IC50 (± S.D.), OCI-Ly3
Method: as §2, §1

Oral bioavailability = type: in vivo; details: in vivo, po
[2] = primary sample #5, 72 hours, read-out: IC50, DLBCL#5

| IC50 (OCI-Ly10 DLBCL cells) | IC50 (OCI-Ly3 DLBCL cells) | oral bioavailability (Oral bioavailability) | Structure (SMILES) | IC50 (Jurkat cells) | XPO1 inhibition activity, fold less than the cis-isomer (XPO1) | IC50 [1, 2] | IC50 ([1]; mean of primary canine DLBCL samples (n = 6), 72 hours, read-out: IC50 (± S.D.), Canine DLBCLs) | IC50 ([1]; primary sample #1, 72 hours, read-out: IC50, DLBCL#1) | IC50 ([1]; primary sample #2, 72 hours, read-out: IC50, DLBCL#2) | IC50 ([1]; primary sample #3, 72 hours, read-out: IC50, DLBCL#3) | IC50 ([1]; primary sample #4, 72 hours, read-out: IC50, DLBCL#4) |
| --- | --- | --- | --- | --- | --- | --- | --- | --- | --- | --- | --- |
| – | – | – | COc1cc(-c2ncn(/C=C/C(=O)OC(C)C)n2)cc(C(F)(F)F)c1 [KPT-185 trans] | > 1000 nM | ~100 fold | > 1000 nM | – | – | – | – | – |
| 246 nM | 24.1 nM | limited oral bioavailability | COc1cc(-c2ncn(/C=C\C(=O)OC(C)C)n2)cc(C(F)(F)F)c1 [KPT-185] | 8.7 ± 0.7 nM | – | 21.6 nM | 13.3 ± 6.2 nM | 13.1 nM | 9 nM | 12.2 nM | 4.9 nM |
